Literature values in patent US20260048144A1, “SECRETED RNA THERAPEUTICS FOR NUCLEAR DELIVERY” (H. Lee Moffitt Cancer Center and Research Institute, Inc., priority 2022, published 2026).

Legend:
[1] = tested in humans; Di Stasi et al. 2011
[2] = infused in thousands of lymphoma and rheumatoid arthritis patients

| Molecule | safety / adverse effects in humans [1] | side effect profile [2] |
| --- | --- | --- |
| CC[C@H](C(=O)N1CCCC[C@H]1C(=O)O[C@H](CCc1ccc(OC)c(OC)c1)c1cccc(OCC(=O)NCCNC(=O)COc2cccc([C@@H](CCc3ccc(OC)c(OC)c3)OC(=O)[C@@H]3CCCCN3C(=O)[C@@H](CC)c3cc(OC)c(OC)c(OC)c3)c2)c1)c1cc(OC)c(OC)c(OC)c1 [AP1903] | deemed safe without adverse effects |  |
| Rituximab |  | favorable side effect profile |
